Source: ChEMBL document CHEMBL4152276, “Design, synthesis and biological evaluation of N-phenyl-(2,4-dihydroxypyrimidine-5-sulfonamido)benzoyl hydrazide derivatives as thymidylate synthase (TS) inhibitors and as potential antitumor drugs” (Eur J Med Chem, 2018)

Legend:
A549 [1] = experiment: Antiproliferative activity against human A549 cells after 24 hrs by MTT assay; type: functional, cell-based; conditions: A549, 24 h
OVCAR-3 = experiment: Antiproliferative activity against human OVCAR3 cells after 24 hrs by MTT assay; type: functional, cell-based; conditions: OVCAR-3, 24 h
SGC-7901 = experiment: Antiproliferative activity against human SGC7901 cells after 24 hrs by MTT assay; type: functional, cell-based; conditions: SGC-7901, 24 h
MDA-MB-231 = experiment: Antiproliferative activity against human MDA-MB-231 cells after 24 hrs by MTT assay; type: functional, cell-based; conditions: MDA-MB-231, 24 h
A549 [2] = experiment: Antiproliferative activity against human A549 cells at 0.512 uM after 24 hrs by MTT assay relative to control; type: functional
A549 [3] = experiment: Antiproliferative activity against human A549 cells at 1.28 uM after 24 hrs by MTT assay relative to control; type: functional
A549 [4] = experiment: Antiproliferative activity against human A549 cells at 3.2 uM after 24 hrs by MTT assay relative to control; type: functional
A549 [5] = experiment: Antiproliferative activity against human A549 cells at 8 uM after 24 hrs by MTT assay relative to control; type: functional
A549 [6] = experiment: Antiproliferative activity against human A549 cells at 20 uM after 24 hrs by MTT assay relative to control; type: functional
[7] = Selectivity index, ratio of CC50 for HPAEpiC to IC50 for human A549 cells; type: toxicity; conditions: HPAEpiC cells (CC50) versus A549 cells (IC50)
[8] = Selectivity index, ratio of CC50 for human IOSE80 cells to IC50 for human A549 cells; type: toxicity; conditions: IOSE80 cells (CC50) versus A549 cells (IC50)
[9] = Selectivity index, ratio of CC50 for human GES1 cells to IC50 for human A549 cells; type: toxicity; conditions: GES1 cells (CC50) versus A549 cells (IC50)
[10] = Selectivity index, ratio of CC50 for human HTB125 cells to IC50 for human A549 cells; type: toxicity; conditions: HTB125 cells (CC50) versus A549 cells (IC50)

Row | IC50 (A549 [1]) [µM] | IC50 (OVCAR-3) [µM] | IC50 (SGC-7901) [µM] | IC50 (MDA-MB-231) [µM] | SMILES | further results
1 | 6.64 | 8.04 | 11.8 | 7.76 | O=C(NNc1cccc(Cl)c1)c1cccc(NS(=O)(=O)c2cnc(O)nc2O)c1 | –
2 | 11.1 | 17 | > 20 | > 20 | O=C(NNc1ccccc1F)c1cccc(NS(=O)(=O)c2cnc(O)nc2O)c1 | –
3 | > 20 | > 20 | > 20 | > 20 | Cc1cccc(NNC(=O)c2cccc(NS(=O)(=O)c3cnc(O)nc3O)c2)c1 | –
4 | > 20 | > 20 | 10.1 | > 20 | Cc1ccc(C(=O)NNC(=O)c2cccc(NS(=O)(=O)c3cnc(O)nc3O)c2)cc1 | –
5 | > 20 | > 20 | > 20 | > 20 | O=C(NNC(=O)c1cccc(NS(=O)(=O)c2cnc(O)nc2O)c1)c1ccc(F)cc1 | –
6 | 2.29 | 7.71 | 8.61 | 4.16 | O=C(NNC(=O)c1cccc(Cl)c1)c1ccc(NS(=O)(=O)c2cnc(O)nc2O)cc1 | –
7 | 14.5 | > 20 | > 20 | > 20 | Cc1ccccc1NNC(=O)c1ccc(NS(=O)(=O)c2cnc(O)nc2O)cc1 | –
8 | 3.74 | 7.3 | 6.07 | 2.36 | O=C(NNC(=O)c1ccccc1Cl)c1cccc(NS(=O)(=O)c2cnc(O)nc2O)c1 | –
9 | 7.61 | 16 | > 20 | > 20 | O=C(NNC(=O)c1ccccc1F)c1ccc(NS(=O)(=O)c2cnc(O)nc2O)cc1 | –
10 | > 20 | > 20 | > 20 | > 20 | O=C(NNC(=O)c1ccc(NS(=O)(=O)c2cnc(O)nc2O)cc1)c1ccc(F)cc1 | –
11 | 1.46 | 3.35 | 2.27 | 2.09 | O=C(NNc1ccccc1Cl)c1cccc(NS(=O)(=O)c2cnc(O)nc2O)c1 | –
12 | 11.7 | > 20 | 16 | > 20 | O=C(NNc1ccccc1F)c1ccc(NS(=O)(=O)c2cnc(O)nc2O)cc1 | –
13 | 8.01 | > 20 | > 20 | 18.1 | Cc1ccccc1C(=O)NNC(=O)c1cccc(NS(=O)(=O)c2cnc(O)nc2O)c1 | –
14 | > 20 | > 20 | > 20 | > 20 | O=C(NNc1ccc(F)cc1)c1cccc(NS(=O)(=O)c2cnc(O)nc2O)c1 | –
15 | > 20 | > 20 | > 20 | > 20 | O=C(NNc1ccc(F)cc1)c1ccc(NS(=O)(=O)c2cnc(O)nc2O)cc1 | –
16 | 10.8 | 10.8 | > 20 | > 20 | O=C(NNC(=O)c1ccccc1F)c1cccc(NS(=O)(=O)c2cnc(O)nc2O)c1 | –
17 | 6 | 13.5 | 7.31 | 3.18 | O=C(NNC(=O)c1cccc(NS(=O)(=O)c2cnc(O)nc2O)c1)c1cccc(Cl)c1 | –
18 | 7.29 | 8.41 | 11.6 | 17.4 | O=C(NNc1cccc(Cl)c1)c1ccc(NS(=O)(=O)c2cnc(O)nc2O)cc1 | –
19 | > 20 | > 20 | > 20 | > 20 | O=C(NNc1ccc(F)cc1)c1ccccc1NS(=O)(=O)c1cnc(O)nc1O | –
20 | 3.34 | 7.23 | 3.63 | 4.01 | O=C(NNc1ccccc1Cl)c1ccc(NS(=O)(=O)c2cnc(O)nc2O)cc1 | –
21 | > 20 | > 20 | > 20 | > 20 | Cc1cccc(NNC(=O)c2ccc(NS(=O)(=O)c3cnc(O)nc3O)cc2)c1 | –
22 | 14.2 | > 20 | > 20 | > 20 | Cc1ccccc1NNC(=O)c1cccc(NS(=O)(=O)c2cnc(O)nc2O)c1 | –

The remaining lines, values behind:

Row | SMILES | IC50 (A549 [1]) [µM] | IC50 (OVCAR-3) [µM] | IC50 (SGC-7901) [µM] | IC50 (MDA-MB-231) [µM] | further results
23 | Nc1nc2[nH]cc(CCc3ccc(C(=O)N[C@@H](CCC(=O)O)C(=O)O)cc3)c2c(=O)[nH]1 [PEMETREXED] | 3.31 | 6.9 | 9.08 | 3.85 | Activity (A549 [2]): 22.93%; Activity (A549 [3]): 49.43%; Activity (A549 [4]): 56.2%; Activity (A549 [5]): 61.82%; Activity (A549 [6]): 64.42%; selectivity ratio [7]: 7.51; selectivity ratio [8]: 3.59; selectivity ratio [9]: 3.22; selectivity ratio [10]: 6.02
24 | Cc1ccc(C(=O)NNC(=O)c2ccccc2NS(=O)(=O)c2cnc(O)nc2O)cc1 | > 20 | 12.9 | 15.5 | > 20 | –
25 | O=C(NNC(=O)c1ccccc1Cl)c1ccc(NS(=O)(=O)c2cnc(O)nc2O)cc1 | 1.9 | 5.22 | 3.24 | 13.9 | –
26 | O=C(NNC(=O)c1ccccc1NS(=O)(=O)c1cnc(O)nc1O)c1ccc(F)cc1 | > 20 | 15.1 | > 20 | > 20 | –
27 | O=C(NNc1ccccc1F)c1ccccc1NS(=O)(=O)c1cnc(O)nc1O | 9.61 | 9.57 | > 20 | > 20 | –
28 | Cc1cccc(NNC(=O)c2ccccc2NS(=O)(=O)c2cnc(O)nc2O)c1 | > 20 | > 20 | > 20 | > 20 | –
29 | Cc1ccccc1C(=O)NNC(=O)c1ccccc1NS(=O)(=O)c1cnc(O)nc1O | 5.45 | > 20 | 13 | 5.57 | –
30 | O=C(NNC(=O)c1ccccc1NS(=O)(=O)c1cnc(O)nc1O)c1ccccc1F | 7.15 | 15.3 | > 20 | > 20 | –
31 | O=C(NNc1cccc(Cl)c1)c1ccccc1NS(=O)(=O)c1cnc(O)nc1O | 5.29 | 5.52 | 10.8 | 11.8 | –
32 | O=C(NNC(=O)c1ccccc1NS(=O)(=O)c1cnc(O)nc1O)c1ccccc1Cl | 5.29 | 18.2 | 2.41 | 8.31 | –
33 | CCCCOc1ccc(C(=O)NNC(=O)c2cccc(NS(=O)(=O)c3cnc(O)nc3O)c2)cc1 | 7.76 | 9.2 | 7.37 | 17 | –
34 | CCCCOc1ccc(C(=O)NNC(=O)c2ccc(NS(=O)(=O)c3cnc(O)nc3O)cc2)cc1 | 9.01 | 12.8 | 14.7 | 11.9 | –
35 | Cc1ccccc1NNC(=O)c1ccccc1NS(=O)(=O)c1cnc(O)nc1O | > 20 | > 20 | > 20 | > 20 | –
36 | Cc1ccccc1C(=O)NNC(=O)c1ccc(NS(=O)(=O)c2cnc(O)nc2O)cc1 | 15.1 | > 20 | > 20 | 7.04 | –
37 | O=C(NNc1ccccc1Cl)c1ccccc1NS(=O)(=O)c1cnc(O)nc1O | 5.48 | 14.1 | > 20 | 18.9 | –
38 | CCCCOc1ccc(C(=O)NNC(=O)c2ccccc2NS(=O)(=O)c2cnc(O)nc2O)cc1 | 4.96 | 5.01 | 6.89 | 6.83 | –
39 | Cc1ccc(C(=O)NNC(=O)c2ccc(NS(=O)(=O)c3cnc(O)nc3O)cc2)cc1 | 15.9 | > 20 | > 20 | > 20 | –
